Patent US12692254B2, “Benzimidazole inhibitors of PAD enzymes” (BRISTOL-MYERS SQUIBB COMPANY, priority 2018, dated 2026)

These compounds were tested against human PAD4 (hPAD4) (Homo sapiens, UniProt Q9UM07) (assay: RFMS human PAD4 functional assay (rapid-fire mass spectrum)). Settings: 5 nM hPAD4 enzyme, 250 μM BAEE, 50 μM Calcium; 30 min preincubation, 90 min reaction at 37° C.
Assay type: biochemical
Summary of the method: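 PAD4 (10 nM) preincubated 30 min with compound (top final 50 μM), then BAEE substrate added in pH 7.5 HEPES buffer with DTT, 50 μM calcium, TPEN; 90 min at 37° C. After TCA quench, citrulline derivatized with phenyl glyoxal (4 mM final, 30 min, 37° C) and quantified by RapidFire MS against internal standard.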

Chain of human PAD4 (hPAD4) (Q9UM07 whole entry): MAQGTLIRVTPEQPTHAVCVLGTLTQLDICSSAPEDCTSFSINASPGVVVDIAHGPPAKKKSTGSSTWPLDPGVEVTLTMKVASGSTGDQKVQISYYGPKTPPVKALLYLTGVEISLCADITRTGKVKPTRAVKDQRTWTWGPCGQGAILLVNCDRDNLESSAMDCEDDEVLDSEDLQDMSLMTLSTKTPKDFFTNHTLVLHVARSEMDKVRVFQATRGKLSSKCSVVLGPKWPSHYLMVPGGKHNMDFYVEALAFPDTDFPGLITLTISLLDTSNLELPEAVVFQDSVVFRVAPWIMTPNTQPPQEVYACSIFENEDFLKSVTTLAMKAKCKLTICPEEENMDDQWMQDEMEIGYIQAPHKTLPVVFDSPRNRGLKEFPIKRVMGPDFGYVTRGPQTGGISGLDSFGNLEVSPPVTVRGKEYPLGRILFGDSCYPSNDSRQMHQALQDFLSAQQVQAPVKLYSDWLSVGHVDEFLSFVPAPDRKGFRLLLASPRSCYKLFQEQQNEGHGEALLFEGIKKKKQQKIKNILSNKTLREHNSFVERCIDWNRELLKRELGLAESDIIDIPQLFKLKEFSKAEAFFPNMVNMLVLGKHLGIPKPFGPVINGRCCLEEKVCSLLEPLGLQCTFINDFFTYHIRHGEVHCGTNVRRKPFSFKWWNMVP

Compared with `COc1cc(C(=O)N2C[C@H]3CC[C@@H]2[C@@H]3N)cc2nc(-c3cc4ccccc4n3C)n(CC3CNC3)c12` [Example 308, (1R,4R,7R)-2-{1-[(azetidin-3-yl)methyl]-7-methoxy-2-(1-methyl-1H-indol-2-yl)-1H-1,3-benzodiazole-5-carbonyl}-2-azabicyclo[2.2.1]heptan-7-amine], `COc1cc(C(=O)N2CC3CCC2[C@@H]3N)cc2nc(-c3cccn3C)n(CC3CN(c4ccnc(C#N)n4)C3)c12` (stereo partly drawn) [Example 318, 4-[3-({5-[(1R,4R,7R)-7-amino-2-azabicyclo[2.2.1]heptane-2-carbonyl]-7-methoxy-2-(1-methyl-1H-pyrrol-2-yl)-1H-1,3-benzodiazo1-1-yl)methyl)azetidin-1-yl]pyrimidine-2-carbonitrile] is 2.4-fold higher in IC50: 538 nM for the first, 1300 nM for the second.

Compared with `COc1cc(C(=O)N2C[C@H]3CC[C@@H]2[C@@H]3N)cc2nc(-c3cc4cccnc4n3CC3CC3)n(C3CCNCC3)c12` [Example 309, (1R,4R,7R)-2-{2-[1-(cyclopropylmethyl)-1H-pyrrolo[2,3-b]pyridin-2-yl]-7-methoxy-1-(piperidin-4-yl)-1H-1,3-benzodiazole-5-carbonyl}-2-azabicyclo[2.2.1]heptan-7-amine], `COc1cc(C(=O)N2CCC[C@@H](N)C2)cc2nc(-c3cc4cccnc4n3CC3CC3)n(C3CNC3)c12` [Example 310, (3R)-1-[1-(azetidin-3-yl)-2-[1-(cyclopropylmethvl)-1H-pyrrolo[2,3-b]pyridin-2-yl]-7-methoxy-1H-1,3-benzodiazole-5-carbonyl]piperidin-3-amine] is 1.6-fold higher in IC50: 1160 nM for the first, 1900 nM for the second. The first is the more potent here.

First: COc1cc(C(=O)N2C[C@H]3CC[C@@H]2[C@@H]3N)cc2nc(-c3cccn3CC3CC3)n(CC3CN(c4ccnc(C#N)n4)C3)c12 [Example 311, 4-[3-({5-[(1R,4R,7R)-7-amino-2-azabicyclo[2.2.1]heptane-2-carbonyl]-2-[1-(cyclopropylmethyl)-1H-pyrrol-2-yl]-7-methoxy-1H-1,3-benzodiazol-1-yl}methyl)azetidin-1-yl]pyrimidine-2-carbonitrile]
Second: COc1cc(C(=O)N2C[C@H]3CC[C@@H]2[C@@H]3N)cc2nc(-c3cccn3CC3CC3)n(CC3CN(c4ccnc(C)n4)C3)c12 [Example 314, (1R,4R,7R)-2-{2-[1-(cyclopropylmethyl)-1H-pyrrol-2-yl]-7-methoxy-1-{[1-(2-methylpyrimidin-4-yl)azetidin-3-yl]methyl}-1H-1,3-benzodiazole-5-carbonyl}-2-azabicyclo[2.2.1]heptan-7-amine]
The IC50 of the first is 4.1-fold lower: 134 nM for the first, 552 nM for the second. The first is the more potent here.

Compared with `CCc1ccccc1-c1nc2cc(C(=O)N3C[C@H]4CC[C@@H]3[C@@H]4N)cc(OC)c2n1CC1CN(c2cncc(C#N)c2)C1` [Example 312, 5-[3-({5-[(1R,4R,7R)-7-amino-2-azabicyclo[2.2.1]heptane-2-carbonyl]-2-(2-ethylphenyl)-7-methoxy-1H-1,3-benzodiazol-1-yl}methyl)azetidin-1-yl]pyridine-3-carbonitrile], `CCc1ccccc1-c1nc2cc(C(=O)N3CC4CCC3[C@@H]4N)cc(OC)c2n1CC1CN(c2cncc(C)c2)C1` (stereo partly drawn) [Example 323, (1R,4R,7R)-2-[2-(2-ethytphenyl)-7-methoxy-1-{[1-(5-methylpyridin-3-yl)azetidin-3-yl]methyl}-1H-1,3-benzodiazole-5-carbonyl]-2-azabicyclo[2.2.1]heptan-7-amine] is 7.9-fold higher in IC50: 380 nM for the first, 2990 nM for the second. The first is the more potent here.

Compared with `COc1cc(C(=O)N2CC3CCC2[C@@H]3N)cc2nc(-c3cccn3CC3CC3)n(CC3CN(c4cncc(C#N)n4)C3)c12` (stereo partly drawn) [Example 313, 6-[3-({5-[(1R,4R,7R)-7-amino-2 azabicyclo[2.2.1]heptane-2-carbonyl]-2-[1-(cyclopropylmethyl)-1H-pyrro1-2-yl]-7-methoxy-1H-1,3-benzodiazol-1-yl}methyl)azetidin-1-yl]pyrazine-2-carbonitrile], `COc1cc(C(=O)N2CC3CCC2[C@@H]3N)cc2nc(-c3cccn3CC3CC3)n(CC3CN(c4cncc(C#N)c4)C3)c12` (stereo partly shown) [Example 317] is 3-fold higher in IC50: 403 nM for the first, 1190 nM for the second.

First: COc1cc(C(=O)N2C[C@H]3CC[C@@H]2[C@@H]3N)cc2nc(-c3csc4ccc(Cl)cc34)n(CC3CN(c4ccnc(C#N)n4)C3)c12 [Example 315, 4-[3-({5-[(1R,4R,7R)-7-amino-2-azabicyclo[2.2.1]heptane-2-carbonyl]-2-(5-chloro-1-benzothiophen-3-yl)-7-methoxy-1H-1,3-benzodiazol-1-yl}methyl)azetidin-1-yl]pyrimidine-2-carbonitrile]
Second: COc1cc(C(=O)N2C[C@H]3CC[C@@H]2[C@@H]3N)cc2nc(-c3csc4ccc(Cl)cc34)n(CC3CN(c4ccnc(C)n4)C3)c12 [Example 324, (1R,4R,7R)-2-[2-(5-chloro-1-benzothiophen-3-yl)-7-methoxy-1-{[1-(2-methylpyrimidin-4-yl)azetidin-3-yl]methyl}-1H-1,3-benzodiazole-5-carbonyl]-2-azabicyclo[2.2.1]heptan-7-amine]
The IC50 of the first is 2-fold lower: 929 nM for the first, 1880 nM for the second.

First: COc1cc(C(=O)N2CC3CCC2[C@@H]3N)cc2nc(-c3csc4ccc(Cl)cc34)n(CC3CN(c4cncc(C#N)c4)C3)c12 (stereo partly shown) [Example 316]
Second: COc1cc(C(=O)N2CC3CCC2[C@@H]3N)cc2nc(-c3csc4ccc(Cl)cc34)n(CC3CN(c4cncc(C(N)=O)c4)C3)c12 (stereo partly drawn) [Example 322, 5[3-({5-[(1R,4R,7R)-7-amino-2-azabicyc1o[2.2.1]heptane-2-carbonyl]-2-(5-ch1oro-1-benzothiophen-3-yl)-7-methoxy-1H-1,3-benzodiazol-1-yl}methyl)azetidin-1-yl]pyridine-3-carboxamide]
The IC50 of the first is 1.8-fold lower: 1150 nM for the first, 2050 nM for the second.

`CCc1ccccc1-c1nc2cc(C(=O)N3C[C@H]4CC[C@@H]3[C@@H]4N)cc(OC)c2n1CC1CN(c2ccnc(C#N)n2)C1` [Example 319, 4-[3-({5-[(1R,4R,7R)-7-amino-2-azabicyclo[2.2.1]heptane-2-carbonyl]-2-(2-ethylphenyl)-7-methoxy-1H-1,3-benzodiazol-1-yl}methyl)azetidin-1-yl]pyrimidine-2-carbonitrile] and `COc1cc(C(=O)N2CC3CCC2[C@@H]3N)cc2nc(-c3csc4ccc(Cl)cc34)n(CC3CN(c4ccnc(C(N)=O)n4)C3)c12` (stereo partly drawn) [Example 320, 4-[3-({5-[(1R,4R,7R)-7-amino-2-azabicyclo[2.2.1]heptane-2-carbonyl]-2-(5-chloro-1-benzothiophen-3-yl)-7-methoxy-1H-1,3-benzodiazo1-1-yl}methyl)azetidin-1-yl]pyrimidine-2-carboxamide] are within 1.5-fold of each other in IC50: 1300 nM for the first, 1350 nM for the second.

Compared with `COc1cc(C(=O)N2CC3CCC2[C@@H]3N)cc2nc(-c3csc4ccc(Cl)cc34)n(CC3CN(C(=O)OCc4ccccc4)C3)c12` (stereo partly drawn) [Example 321, benzyl 3-({5-[(1R,4R,7R)-7-amino-2-azabicyclo[2.2.1]heptane-2-carbonyl]-2-(5-chloro-1-benzothiophen-3-yl)-7-methoxy-1H-1,3-benzodiazo1-1-yl}methyl)azetidine-l-carboxylate], `COc1cc(C(=O)N2CC3CCC2[C@@H]3N)cc2nc(-c3cc4cccnc4n3CC3CC3)n(CC3CN(S(=O)(=O)c4ccccc4)C3)c12` (stereo partly shown) [Example 326] is 7.8-fold lower in IC50: 1530 nM for the first, 197 nM for the second. The second is the more potent here.

With `COc1cc(C(=O)N2C[C@H]3CC[C@@H]2[C@@H]3N)cc2nc(-c3cc4cccnc4n3CC3CC3)n(CC3CN(S(=O)(=O)C(F)(F)F)C3)c12` [Example 325, (1R,4R,7R)-2-{2-[1-(cyclopropylmethyl)-1H-pyrrolo[2,3-b]pyridin-2-yl]-7-methoxy-1-[(1-trifluoromethanesulfonylazetidin-3-yl)methyl]-1H-1,3-benzodiazole-5-carbonyl}-2-azabicyclo[2.2.1]heptan-7-amine] the IC50 was 163 nM.
